Source: patent US11180504B2 (ORCHID PHARMA LTD., priority 2016, dated 2021)
Values after ≈ are worked out from the molar mass of the structure shown.

Key:
[1] = system: methicillin-sensitive Staphylococcus aureus; experiment: MIC by broth micro-dilution (CLSI), methicillin-sensitive S. aureus; assay type: cell-based; details: Staphylococcus aureus, ATCC 29213 / MSSA, MSSA S. aureus ATCC29213; read-out: MIC
[2] = system: carbapenem sensitive Pseudomonas aeruginosa; experiment: MIC by broth micro-dilution (CLSI), carbapenem sensitive P. aeruginosa; assay type: cell-based; details: Pseudomonas aeruginosa, ATCC27853, Meropenem susceptible P. aeruginosa ATCC27853; read-out: MIC
[3] = system: carbapenemase producing K. pneumoniae; experiment: MIC by broth micro-dilution (CLSI), carbapenemase producing K. pneumoniae; assay type: cell-based, Klebsiella pneumoniae; details: Klebsiella pneumoniae, ATCCBAA1705, KPC-2 K. pneumoniae ATCC BAA-1705; read-out: MIC
[4] = system: carbapenem sensitive Escherichia coli; experiment: MIC by broth micro-dilution (CLSI), carbapenem sensitive E. coli; assay type: cell-based; details: Escherichia coli, ATCC25922, ESBL −ve E. coli ATCC25922; read-out: MIC

MIC [1] [µg/mL]	MIC [2] [µg/mL]	MIC [3] [µg/mL]	MIC [4] [µg/mL]	Structure (SMILES)
64 (≈ 130 µM)	128 (≈ 259 µM)	8 (≈ 16.2 µM)	2 (≈ 4.05 µM)	C[C@@H](NC(=O)[C@H]1CC[C@@H](N)C1)[C@H]1C(=O)N2C(C(=O)O)=C(S[C@@H]3CN[C@H](C(=O)N(C)C)C3)[C@H](C)[C@H]12 [Example 266]
0.5 (≈ 1 µM)	> 128	2 (≈ 4.02 µM)	1 (≈ 2.01 µM)	C[C@@H](NC(=O)C(F)F)[C@H]1C(=O)N2C(C(=O)O)=C(SC[C@@H]3C[C@H](NS(N)(=O)=O)CN3)[C@H](C)[C@H]12 [Example 267]
8 (≈ 17.1 µM)	32 (≈ 68.4 µM)	4 (≈ 8.56 µM)	2 (≈ 4.28 µM)	C[C@@H](NC(=O)CC(N)=O)[C@H]1C(=O)N2C(C(=O)O)=C(S[C@@H]3CN[C@H](C(=O)N(C)C)C3)[C@H](C)[C@H]12 [Example 268]
16 (≈ 32.6 µM)	128 (≈ 261 µM)	4 (≈ 8.15 µM)	4 (≈ 8.15 µM)	CNCC(=O)N[C@H](C)[C@H]1C(=O)N2C(C(=O)O)=C(SC[C@@H]3C[C@H](NS(N)(=O)=O)CN3)[C@H](C)[C@H]12 [Example 269]
4 (≈ 8.04 µM)	64 (≈ 129 µM)	4 (≈ 8.04 µM)	1 (≈ 2.01 µM)	C[C@@H](NC(=O)[C@@H]1CSCN1)[C@H]1C(=O)N2C(C(=O)O)=C(S[C@@H]3CN[C@H](C(=O)N(C)C)C3)[C@H](C)[C@H]12 [Example 270]
2 (≈ 3.71 µM)	8 (≈ 14.9 µM)	4 (≈ 7.43 µM)	1 (≈ 1.86 µM)	C[C@@H](NC(=O)[C@@H]1CSCN1)[C@H]1C(=O)N2C(C(=O)O)=C(S[C@@H]3CN[C@H](C(=O)N4CC[C@@H](N)C4)C3)[C@H](C)[C@H]12 [Example 271]
128 (≈ 266 µM)	> 128	64 (≈ 133 µM)	64 (≈ 133 µM)	CNC(=O)CC(=O)N[C@H](C)[C@H]1C(=O)N2C(C(=O)O)=C(S[C@@H]3CN[C@H](C(=O)N(C)C)C3)[C@H](C)[C@H]12 [Example 272]
128 (≈ 273 µM)	128 (≈ 273 µM)	32 (≈ 68.3 µM)	16 (≈ 34.1 µM)	CNCC(=O)N[C@H](C)[C@H]1C(=O)N2C(C(=O)O)=C(SC[C@H](N)C(=O)N3CC[C@@H](N)C3)[C@H](C)[C@H]12 [Example 273]
32 (≈ 73 µM)	> 128	16 (≈ 36.5 µM)	16 (≈ 36.5 µM)	CCCCN[C@H](C)[C@H]1C(=O)N2C(C(=O)O)=C(S[C@@H]3CN[C@H](C(=O)N(C)C)C3)[C@H](C)[C@H]12 [Example 274]
64 (≈ 107 µM)	> 128	64 (≈ 107 µM)	16 (≈ 26.7 µM)	CNCC(=O)N[C@H](C)[C@H]1C(=O)N2C(C(=O)O)=C(S[C@@H]3CN[C@H](C(=O)N4CCC(N)(Cc5ccccc5)CC4)C3)[C@H](C)[C@H]12 [Example 275]
64 (≈ 116 µM)	16 (≈ 29 µM)	4 (≈ 7.25 µM)	2 (≈ 3.63 µM)	CNCC(=O)N[C@H](C)[C@H]1C(=O)N2C(C(=O)O)=C(S[C@@H]3CN[C@H](C(=O)N4CCC(N)(C(N)=O)CC4)C3)[C@H](C)[C@H]12 [Example 277]
16 (≈ 30.6 µM)	4 (≈ 7.65 µM)	2 (≈ 3.83 µM)	2 (≈ 3.83 µM)	CNCC(=O)N[C@H](C)[C@H]1C(=O)N2C(C(=O)O)=C(S[C@@H]3CN[C@H](C(=O)N4CCC(C)(N)CC4)C3)[C@H](C)[C@H]12 [Example 278]
> 128	> 128	16 (≈ 31.4 µM)	4 (≈ 7.85 µM)	CNCC(=O)N[C@H](C)[C@H]1C(=O)N2C(C(=O)O)=C(S[C@@H]3CN[C@H](C(=O)NC4CCOCC4)C3)[C@H](C)[C@H]12 [Example 279]
64 (≈ 112 µM)	16 (≈ 28 µM)	8 (≈ 14 µM)	8 (≈ 14 µM)	C[C@@H](NC(=O)[C@@H]1CS(=O)(=O)CN1)[C@H]1C(=O)N2C(C(=O)O)=C(S[C@@H]3CN[C@H](C(=O)N4CC[C@@H](N)C4)C3)[C@H](C)[C@H]12 [Example 280]
32 (≈ 56.5 µM)	64 (≈ 113 µM)	16 (≈ 28.2 µM)	8 (≈ 14.1 µM)	C[C@@H](NC(=O)[C@@H]1CS(=O)(=O)CN1)[C@H]1C(=O)N2C(C(=O)O)=C(S[C@@H]3CN[C@H](CNS(N)(=O)=O)C3)[C@H](C)[C@H]12 [Example 281]
32 (≈ 60.8 µM)	32 (≈ 60.8 µM)	2 (≈ 3.8 µM)	1 (≈ 1.9 µM)	CNCC(=O)N[C@H](C)[C@H]1C(=O)N2C(C(=O)O)=C(S[C@@H]3CN[C@H](CNC(=O)[C@@H]4C[C@H](F)CN4)C3)[C@H](C)[C@H]12 [Example 282]
16 (≈ 32.5 µM)	8 (≈ 16.2 µM)	0.5 (≈ 1.02 µM)	0.25 (≈ 0.508 µM)	C[C@@H](NC(=O)Cn1cnnn1)[C@H]1C(=O)N2C(C(=O)O)=C(S[C@@H]3CN[C@H](C(=O)N(C)C)C3)[C@H](C)[C@H]12 [Example 283]
1 (≈ 1.89 µM)	64 (≈ 121 µM)	4 (≈ 7.55 µM)	1 (≈ 1.89 µM)	C[C@@H](NC(=O)[C@H]1CS(=O)(=O)CN1)[C@H]1C(=O)N2C(C(=O)O)=C(S[C@@H]3CN[C@H](C(=O)N(C)C)C3)[C@H](C)[C@H]12 [Example 284]
64 (≈ 129 µM)	128 (≈ 259 µM)	8 (≈ 16.2 µM)	4 (≈ 8.09 µM)	C[C@@H](NC(=O)[C@H]1CNCCN1)[C@H]1C(=O)N2C(C(=O)O)=C(S[C@@H]3CN[C@H](C(=O)N(C)C)C3)[C@H](C)[C@H]12 [Example 285]
128 (≈ 252 µM)	16 (≈ 31.5 µM)	8 (≈ 15.7 µM)	4 (≈ 7.86 µM)	CNCC(=O)N[C@H](C)[C@H]1C(=O)N2C(C(=O)O)=C(S[C@@H]3CN[C@H](C(=O)N4C[C@@H](N)C[C@H]4C)C3)[C@H](C)[C@H]12 [Example 287]
128 (≈ 224 µM)	> 128	16 (≈ 28 µM)	4 (≈ 7.01 µM)	CNCC(=O)N[C@H](C)[C@H]1C(=O)N2C(C(=O)O)=C(S[C@@H]3CN[C@H](C(=O)N4C[C@H](N)C[C@H]4c4ccccc4)C3)[C@H](C)[C@H]12 [Example 288]
8 (≈ 19.1 µM)	> 128	16 (≈ 38.2 µM)	8 (≈ 19.1 µM)	C[C@@H](NC(=O)C(F)F)[C@H]1C(=O)N2C(C(=O)O)=C(SC[C@@H]3CNCCN3)[C@H](C)[C@H]12 [Example 289]
32 (≈ 63.2 µM)	8 (≈ 15.8 µM)	4 (≈ 7.9 µM)	2 (≈ 3.95 µM)	CNCC(=O)N[C@H](C)[C@H]1C(=O)N2C(C(=O)O)=C(S[C@@H]3CN[C@H](C(=O)N4CC5CC4CN5)C3)[C@H](C)[C@H]12 (stereo partly drawn) [Example 290]
32 (≈ 60.8 µM)	8 (≈ 15.2 µM)	2 (≈ 3.8 µM)	2 (≈ 3.8 µM)	CNCC(=O)N[C@H](C)[C@H]1C(=O)N2C(C(=O)O)=C(S[C@@H]3CN[C@H](CNC(=O)[C@@H]4CSCN4)C3)[C@H](C)[C@H]12 [Example 291]
128 (≈ 259 µM)	16 (≈ 32.3 µM)	8 (≈ 16.2 µM)	4 (≈ 8.09 µM)	CNCC(=O)N[C@H](C)[C@H]1C(=O)N2C(C(=O)O)=C(S[C@@H]3CN[C@H](C(=O)N4CC(C)(N)C4)C3)[C@H](C)[C@H]12 [Example 292]
128 (≈ 293 µM)	> 128	128 (≈ 293 µM)	32 (≈ 73.3 µM)	C[C@@H](NCC1CC1)[C@H]1C(=O)N2C(C(=O)O)=C(S[C@@H]3CN[C@H](C(=O)N(C)C)C3)[C@H](C)[C@H]12 [Example 293]
1 (≈ 2.03 µM)	16 (≈ 32.5 µM)	1 (≈ 2.03 µM)	0.06 (≈ 0.122 µM)	C[C@@H](NC(=O)Cn1cnnn1)[C@H]1C(=O)N2C(C(=O)O)=C(SC3CN(C4=NCCS4)C3)[C@H](C)[C@@H]12 [Example 294]
